Laboratory results as given in paper PMC5913254, “A novel in vitro metric predicts in vivo efficacy of inhaled silver-based antimicrobials in a murine Pseudomonas aeruginosa pneumonia model” (Scientific Reports, 2018).
Where “and” joins values, the source holds several entries; their conditions need not be identical. Equal values may be shown once.

Experiments:
[1] = system: Pseudomonas aeruginosa (PA M57-15); assay: Histology of lungs of infected, treated mice; assay type: in vivo, mouse; details: lungs at 25 hours after three treatments; for aggregate histological score: inflammation, consolidation, congestion/haemorrhage each 0 to +3, sham +6
Description: Male C57BL/6 J mice were infected with PA M57-15 and treated with the four SCCs or vehicle as described above. At 25 hours, following three treatments, the mice were humanely euthanized by cervical dislocation following anesthetization by a ketamine/xylazine cocktail. Lungs of the mice were harvested aseptically, the lung sections fixed in 10% formalin for a minimum of 12 hours, and embedded in paraffin using an automated rapid tissue processor (Peloris-Leica Microsystems Inc., Buffalo Grove, IL). Two 5-micron thick sections were obtained from each paraffin block and stained with Haematoxylin/Eosin on an automated stainer (Symphony, Ventana-Roche, Tucson, AZ). Sections were evaluated by light microscopy (Nikon Eclipse-Ni, Nikon Instruments, Inc., Americas), scored using a semi-quantitative scale from 0 (negative), +1 (mild), +2 (moderate), and +3 (severe) for the following parameters: inflammation, consolidation, congestion/haemorrhage, and an aggregate score was calculated for each group. The presence of bacterial colonies if any was also noted. A pathologist, who was blinded to the treatment received by the mice, performed the examination and analysis of tissues. A total of two mice were used in each treatment group.

[2] = system: Pseudomonas aeruginosa (PA M57-15); assay: Murine P. aeruginosa acute lung infection model, nebulized treatment; assay type: in vivo, mouse; details: for survival: 25 µmol Ag+ per dose nebulized, 5 doses, sham 9.1%; for survival / survival compared with sham treatment: 90:10 DH2O:DMSO, head-to-head of four SCCs; for clinical illness score (signs of illness): 25 µmol per dose nebulized with DMSO, SCC1 and SCC22: at 24 hours following infection, scorers not blinded; for survival compared with sham treatment: 25 µmol per dose nebulized
Description: Weight-matched male C57BL/6 J mice aged 6–8 weeks were used for all acute lung infection studies, which were approved by the University of Texas Southwestern Medical Center Institutional Animal Care and Use Committee (IACUC). All experiments were performed in accordance with relevant guidelines and regulations. Animals were housed in a barrier facility under pathogen-free conditions until they were inoculated with bacteria. The previously described clinical mucoid strain of Pseudomonas aeruginosa (PA M57-15) grown to mid-log phase (OD650 = 0.4) in Luria broth (LB) was used for all pulmonary infection experiments. The density of the bacterial culture (CFU/mL) was determined using serial dilution and plating for each experiment.
Mice were anesthetized by intraperitoneal administration of a ketamine (60 mg/kg) and xylazine (8 mg/kg) cocktail, intranasally inoculated using 75 µL of the bacterial inoculum (~1 × 10^6 CFU per mouse), and assigned randomly into treatment groups. Treatment was administered at 1-hour post-inoculation and again every 12 hours thereafter up to a 5th dose at 49 hours via nebulization of 5 mL of SCC solutions (containing 25 µmol total Ag^+ cation per dose for each SCC) or sham treatment. For the head-to-head comparison of unencapsulated SCC1, SCC22, SCC23, and SCC28, all SCCs were dissolved in a 90:10 (v/v) mixture of DH2O and DMSO; whereas, the sham treatment consisted of 90:10 DH2O: DMSO, but with dilute phosphate buffer (1 mM Na2HPO4, 0.2 mM KH2PO4) incorporated to provide tonicity for nebulization. For the dose-response studies with unencapsulated SCC1 and SCC22, 5 mL of SCCs dissolved in DH2O alone or 90:10 (v/v) mixture of DH2O and DMSO was nebulized to provide a total dose of 25, 50, or 100 µmol Ag^+ cation per dose for each SCC. Nebulization of the SCCs was achieved using a previously described experimental setup comprising of an Aeroneb Lab apparatus connected to a multi-dosing chamber. Throughout each study, the mice were monitored constantly and times of death were recorded. Every 24 hours, the mice were weighed and assigned cumulative clinical illness scores (0–6) based on their resting posture (0–2), condition of their fur (0–1), and overall activity level (0–3), with higher scores indicating more severe illness. The investigators assigning the scores were not blinded to the treatment group, which is a limitation of this study. The survival studies were all performed in duplicate with results pooled.
In vivo efficacy testing of the silver loaded, polyphosphoester, shell-crosslinked, knedel-like nanoparticles (Ag-PPE-SCKs) was carried out in a similar manner as with the SCCs. Ag-PPE-SCKs were suspended in 5 mL DH2O to a concentration of ~5 mM silver, as previously determined by mass spectrometry, and empty PPE-SCKs were suspended corresponding to the same mass of polymer. SCC1, a comparator treatment, was similarly dissolved to 5 mM in 5 mL DH2O, and sham consisted of the DH2O:phosphate buffer solution used in the other studies. The infection model was carried out as before; however, the Ag-PPE-SCKs and PPE-SCKs were dosed at 1 and 25 hours post-infection with the nanoparticles and given sham treatment at 13, 37, and 49 hours. SCC1 and sham treatment groups were dosed at all five time points. Survival studies were performed twice and pooled, though SCC1 was only used in one of the survival studies.

[3] = system: primary tracheal epithelial cells grown at air-liquid interface; design: method as in PMID 20005242; details: higher than 16HBE; cited from earlier work
[4] = design: method as in PMID 23930200; details: radiolabelled Ag+; cited from earlier work
[5] = system: P. aeruginosa strain PA M57-15; assay: MIC and MBC determination, standard CLSI protocol with minor modifications; assay type: cell-based, Pseudomonas aeruginosa
Description: Pseudomonas aeruginosa isolate PA M57-15 was generously donated by Thomas Ferkol, M.D. (Washington University, St. Louis, MO). PA M57-15 was struck from frozen glycerol stocks on to tryptic soy agar plates (Remel) and incubated overnight at 37 °C in a warm room until individual colonies formed. A single colony was inoculated in 10 mL Mueller-Hinton (MH) broth, grown in a shaking incubator (37 °C, 200 rpm) to log phase (OD650 = 0.4), and utilized for experiments after appropriate dilutions. PA M57-15 bacterial suspension at OD650 = 0.4 corresponds to 2–3 × 10^8 CFU/mL, as verified by repeated serial dilution and plating.
The MIC and MBC determinations of the various SCCs and the Ag-PPE-SCK NPs were performed using a standard CLSI protocol with minor modifications. A mucoid clinical isolate of Pseudomonas aeruginosa, PA M57-15, from a cystic fibrosis patient was utilized, because we have previously studied this strain in murine models of P. aeruginosa lung infection[21],[29],[30]. PA M57-15 grown to log phase as previously described was diluted to a density of 10^6 CFU/mL in MH and added 1:1 in a 96-well plate with different concentrations of SCCs dissolved in 95:5 (v:v) DH2O:DMSO solution or the Ag-PPE-SCKs suspended in DH2O. The final SCC concentrations tested were 0.25, 0.5, 0.75, 1, 1.5, and 2 μg/mL and were increased in two-fold increments from 2 μg/mL to 32 μg/mL. The final DMSO concentrations in the wells was 2.5% (v/v) and had no impact on bacterial growth, as determined by growth in the positive control wells. […] Contents of these clear wells were streaked on agar plates and incubated for an additional 24 hours at 37 °C. […] Three technical replicates were employed for each experiment and a total of three biological replicates were performed on separate days (3 technical replicates x 3 biological replicates = 9 total replicates) to account for day-to-day variations in media, bacterial growth, compound dilutions, as well as other experimental conditions. The MIC and MBC values that were identical for at least two readings out of the three are reported.

[6] = system: immortalized human bronchial epithelial cells (16HBE); assay: alamarBlue cytotoxicity assay against 16HBE cells (in vitro LD50); assay type: cell-based; details: 24 h
Description: (§1) 16HBEs (16HBE14o-), generously provided by Dr. D. Gruenert (University of California, San Francisco, CA) are a human bronchial epithelial cell line transformed with SV40 large T-antigen using the replication-defective pSVori plasmid. 16HBEs were used as a model to determine the relative toxicities of the SCCs to airway cells. Cells between passages 20 to 35 were cultured in Minimum Essential Medium with Earle’s Balanced Salts (Sigma Aldrich) and non-essential amino acids supplemented with penicillin-streptomycin (1%), L-glutamine (1%), and foetal bovine serum (10%). Additionally, primary human dermal fibroblasts (HDFs) were also utilized for in vitro toxicity studies. HDFs at passage 4 were generously donated by Carol Tamminga, M.D. (University of Texas Southwestern Medical Center, Dallas, TX). HDFs were cultured in Dulbecco’s Modified Eagle Medium (Sigma Aldrich) supplemented with penicillin-streptomycin (1%), L-glutamine (1%), and foetal bovine serum (10%) and were utilized between passage 7 to 14 for in vitro toxicity studies. 16HBE and HDF cultures were assessed for bacterial contamination visually, while mycoplasma contamination was assessed both visually and through a PCR-based Universal Mycoplasma Detection Kit assay (ATCC® 30-1012K^TM).
(§2) 16HBEs and HDFs grown to confluency (90–95%) as described above were sub-cultured, re-suspended in the appropriate medium, and seeded in wells of clear 96-well plate(s) at either 25,000 cells/well (16HBEs) or 15,000 cells/well (HDFs) with 100 µL of feeding media and incubated over 24 hours at 37 °C, 5% CO2, and 100% RH. The cells were then washed once with sterile phosphate buffered saline (PBS, pH = 7.4) and 100 µL of SCCs or the Ag-PPE-SCKs at various concentrations in OPTI-MEM® (Invitrogen) with 3.3% (v/v) DMSO, or without for the Ag-PPE-SCKs, was added to the cells. Next, 10 µL of alamarBlue® (Invitrogen) was added to each well and the plates were re-incubated for 24 h. Finally, the plates were measured for optical density at 570 and 600 nm with a spectrophotometer (POLARstar Omega, BMG Labtech or Cytation 5, BioTek). Untreated cells and media only (with alamarBlue®) were used as controls. […] The relative viabilities of the cells were determined as per the manufacturer’s instructions and using GraphPad Prism® software to generate a non-linear curve fit and interpolate the in vitro LD50 for each SCC. This assay was performed with three technical replicates for each SCC and Ag-PPE-SCK dose and biological replicates were performed in quadruplicate on separate days (3 technical replicates × 4 biological replicates = 12 total replicates). The DEM for each SCC was determined as the ratio of the molar LD50 and MBC concentrations (LD50/MBC).

[7] = system: 16HBE cells vs. PA M57-15; assay: Drug efficacy metric (DEM = LD50/MBC) using 16HBEs; design: species or system human; details: 16HBE-based DEM; one-way ANOVA with Tukey's test or unpaired t-test
Description: as §2, with “This assay was performed with three technical replicates for each SCC and Ag-PPE-SCK dose and biological replicates were performed in quadruplicate on separate days (3 technical replicates × 4 biological replicates = 12 total replicates).” left out

[8] = system: primary human dermal fibroblasts (HDFs); assay: alamarBlue cytotoxicity assay against HDFs (in vitro LD50); assay type: cell-based; details: 24 h
Description: as §1, §2

[9] = design: method as in PMID 20449175; details: cited from earlier work
[10] = 100 µmol, DMSO-free formulation

| SMILES | bacterial colonies in lung tissue [1] | aggregate histological score [1] | survival [2] | clinical illness score (signs of illness) [2] | survival advantage compared with sham treatment ([2]; 25 µmol, DMSO-free formulation) | survival advantage compared with sham treatment ([2]; 25 µmol, with DMSO) | survival advantage compared with sham treatment ([2]; 50 µmol, DMSO-free formulation) | survival advantage compared with sham treatment [2, 10] | survival advantage compared with sham treatment ([2]; 100 µmol, with DMSO) | MBC ([5]; PA M57-15) | MIC ([5]; PA M57-15) | MBC ([5]; PA M57-15, molar basis) | MIC ([5]; PA M57-15, molar basis) | LD50 [6] | DEM compared between formulations [7] | LD50 [8] | survival compared with sham treatment [2] | other results |
| --- | --- | --- | --- | --- | --- | --- | --- | --- | --- | --- | --- | --- | --- | --- | --- | --- | --- | --- |
| CC(=O)[O][Ag][c]1n(C)c2c(c(=O)n(C)c(=O)n2C)[n+]1C [SCC1] | complete absence of bacterial colonies | +4 | 25% | significantly lower signs of illness | 58% | 42% | 64% | 73% | 17% | 1.5 µg/mL | 0.75 µg/mL | 4.0 µM and 4 µM | 2.0 µM and 2 µM | 297 µM | significantly higher DEMs than SCC23 and SCC28 | 25.8 µM |  | survival advantage compared with sham treatment ([2]; ~5 mM silver in 5 mL DH2O nebulized, Ag-PPE-SCKs dosed at 1 and 25 h, SCC1 at all five time points): 50%; LD50 of primary cells relative to that of 16HBE [3]: about 2 log10; accumulation in the liver [4]: minimal accumulation |
| CC(=O)[O][Ag][c]1n(CCCO)c(Cl)c(Cl)[n+]1C [SCC22] | No bacterial colonies were identified | +3 | 42% | significantly lower signs of illness | 25% | 58% | 67% | 67% | did not yield any survival advantage | 1.0 µg/mL | 0.75 µg/mL | 2.7 µM | 2.0 µM and 2 µM | 224 µM | significantly higher DEMs than SCC23 and SCC28 | 22.7 µM |  | survival advantage compared with sham treatment ([2]; 50 µmol, with DMSO): 50%; water solubility [9]: up to 110 g/L |
| CC(=O)[O][Ag][c]1n(Cc2ccc3ccccc3c2)c(Cl)c(Cl)[n+]1Cc1ccc2ccccc2c1 [SCC23] | bacterial colonies were not identified | +4 |  | appeared the most infirm at each time-point |  |  |  |  |  | 1.0 µg/mL | 0.50 µg/mL | 1.7 µM | 0.86 µM | 14.7 µM |  | 14.2 µM | significantly lower survival |  |
| CCCCCCn1c(Cl)c(Cl)[n+](Cc2ccc3ccccc3c2)[c]1[Ag][O]C(C)=O [SCC28] | bacterial colonies were not identified | 4 |  |  |  |  |  |  |  | 1.0 µg/mL | 0.50 µg/mL | 1.9 µM | 0.95 µM | 58.1 µM |  | 9.8 µM | significantly lower survival |  |
